From PubChem BioAssay AID1845208 (Molecular Pharmacology Branch, DTP, NCI, 2023)
pIC50: −log10 of the molar value. “And” between values parts separate entries of the source, which are not always exact repeats. Equal entries are not always repeated.

System: NCI-H196 SCLC complex tumor spheroid viability
Experiment: Anticancer human tumor NCI-H196 cell line growth inhibition;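 also: spheroids exposed to compounds for 7 days before readout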;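 as to viability, T/C: 100% = DMSO vehicle control wells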
Conditions: for viability, T/C: stronger effect = lower value
Outline: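 Complex spheroids of malignant cells with endothelial cells and mesenchymal stem cells; agents alone or combined, from near clinical Cmax (or 10 microM if unknown) down in half-log steps, 0.25% DMSO final.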

[1] = curve of first compound, second compound 0.003 µM
[2] = curve of first compound, second compound 0.00949 µM
[3] = curve of first compound, second compound 0.03 µM
[4] = curve of first compound, second compound 0.0949 µM
[5] = curve of first compound, second compound 0.3 µM

O=C(c1cc(Cc2n[nH]c(=O)c3ccccc23)ccc1F)N1CCN(C(=O)C2CC2)CC1
viability, T/C (compound 0.0949 µM): 99.6% and 102% and 108% | viability, T/C (compound 0.3 µM): 100% and 93.2% and 96% | viability, T/C (compound 0.949 µM): 90.1% and 99.8% and 99.6% | viability, T/C (compound 3 µM): 98.9% and 93.9% and 98.2% | viability, T/C (compound 9.49 µM): 92.9% and 89.8% and 95.1% | viability, T/C (compound 30 µM): 85.1% (2×) and 69.1% | pIC50 (curve of compound): < 4.52

CC1COCCN1c1cc(-c2ccnn2C)c2ccnc(-c3ccn[nH]3)c2n1 (configuration not stated) + CC[C@@]1(O)C(=O)OCc2c1cc1n(c2=O)Cc2cc3c(CN(C)C)c(O)ccc3nc2-1
pIC50 [1]: 5.39 | pIC50 [2]: 5.65 | pIC50 [3]: 5.32 | pIC50 [4]: 5.38 | pIC50 [5]: 6.48 | viability, T/C (second compound 0.003 µM, first compound 0.0316 µM): 83% | viability, T/C (second compound 0.003 µM, first compound 0.1 µM): 75.1% | viability, T/C (second compound 0.003 µM, first compound 0.316 µM): 68.1% | viability, T/C (second compound 0.003 µM, first compound 1 µM): 57% | viability, T/C (second compound 0.003 µM, first compound 3.16 µM): 50.6% | viability, T/C (second compound 0.003 µM, first compound 10 µM): 47.3% | viability, T/C (second compound 0.00949 µM, first compound 0.0316 µM): 75.4% | viability, T/C (second compound 0.00949 µM, first compound 0.1 µM): 69.9% | viability, T/C (second compound 0.00949 µM, first compound 0.316 µM): 67% | viability, T/C (second compound 0.00949 µM, first compound 1 µM): 51.4% | viability, T/C (second compound 0.00949 µM, first compound 3.16 µM): 52% | viability, T/C (second compound 0.00949 µM, first compound 10 µM): 45% | viability, T/C (second compound 0.03 µM, first compound 0.0316 µM): 70.8% | viability, T/C (second compound 0.03 µM, first compound 0.1 µM): 64.9% | viability, T/C (second compound 0.03 µM, first compound 0.316 µM): 60.9% | viability, T/C (second compound 0.03 µM, first compound 1 µM): 57.6% | viability, T/C (second compound 0.03 µM, first compound 3.16 µM): 50.2% | viability, T/C (second compound 0.03 µM, first compound 10 µM): 47.6% | viability, T/C (second compound 0.0949 µM, first compound 0.0316 µM): 62.8% | viability, T/C (second compound 0.0949 µM, first compound 0.1 µM): 61.5% | viability, T/C (second compound 0.0949 µM, first compound 0.316 µM): 61.7% | viability, T/C (second compound 0.0949 µM, first compound 1 µM): 57.1% | viability, T/C (second compound 0.0949 µM, first compound 3.16 µM): 50.7% | viability, T/C (second compound 0.0949 µM, first compound 10 µM): 44.3% | viability, T/C (second compound 0.3 µM, first compound 0.0316 µM): 55.9% | viability, T/C (second compound 0.3 µM, first compound 0.1 µM): 51.7% | viability, T/C (second compound 0.3 µM, first compound 0.316 µM): 48.4% | viability, T/C (second compound 0.3 µM, first compound 1 µM): 49.1% | viability, T/C (second compound 0.3 µM, first compound 3.16 µM): 43.4% | viability, T/C (second compound 0.3 µM, first compound 10 µM): 38.5%

Cn1ncnc1[C@H]1c2n[nH]c(=O)c3cc(F)cc(c23)N[C@@H]1c1ccc(F)cc1 + CC[C@@]1(O)C(=O)OCc2c1cc1n(c2=O)Cc2cc3c(CN(C)C)c(O)ccc3nc2-1
pIC50 [1]: < 5.52 | pIC50 [2]: < 5.52 | pIC50 [3]: < 5.52 | pIC50 [4]: < 5.52 | pIC50 [5]: < 5.52 | viability, T/C (second compound 0.003 µM, first compound 0.00949 µM): 97.6% | viability, T/C (second compound 0.003 µM, first compound 0.03 µM): 90.2% | viability, T/C (second compound 0.003 µM, first compound 0.0949 µM): 96.9% | viability, T/C (second compound 0.003 µM, first compound 0.3 µM): 95.3% | viability, T/C (second compound 0.003 µM, first compound 0.949 µM): 95% | viability, T/C (second compound 0.003 µM, first compound 3 µM): 98.2% | viability, T/C (second compound 0.00949 µM, first compound 0.00949 µM): 96.5% | viability, T/C (second compound 0.00949 µM, first compound 0.03 µM): 87.7% | viability, T/C (second compound 0.00949 µM, first compound 0.0949 µM): 95.5% | viability, T/C (second compound 0.00949 µM, first compound 0.3 µM): 105% | viability, T/C (second compound 0.00949 µM, first compound 0.949 µM): 104% | viability, T/C (second compound 0.00949 µM, first compound 3 µM): 102% | viability, T/C (second compound 0.03 µM, first compound 0.00949 µM): 104% | viability, T/C (second compound 0.03 µM, first compound 0.03 µM): 110% | viability, T/C (second compound 0.03 µM, first compound 0.0949 µM): 113% | viability, T/C (second compound 0.03 µM, first compound 0.3 µM): 108% | viability, T/C (second compound 0.03 µM, first compound 0.949 µM): 104% | viability, T/C (second compound 0.03 µM, first compound 3 µM): 97.4% | viability, T/C (second compound 0.0949 µM, first compound 0.00949 µM): 108% | viability, T/C (second compound 0.0949 µM, first compound 0.03 µM): 108% | viability, T/C (second compound 0.0949 µM, first compound 0.0949 µM): 105% | viability, T/C (second compound 0.0949 µM, first compound 0.3 µM): 110% | viability, T/C (second compound 0.0949 µM, first compound 0.949 µM): 106% | viability, T/C (second compound 0.0949 µM, first compound 3 µM): 96.8% | viability, T/C (second compound 0.3 µM, first compound 0.00949 µM): 99.1% | viability, T/C (second compound 0.3 µM, first compound 0.03 µM): 99.9% | viability, T/C (second compound 0.3 µM, first compound 0.0949 µM): 91% | viability, T/C (second compound 0.3 µM, first compound 0.3 µM): 95.3% | viability, T/C (second compound 0.3 µM, first compound 0.949 µM): 91.2% | viability, T/C (second compound 0.3 µM, first compound 3 µM): 82.5%
